Laboratory results taken from patent US5968910A, “Compositions containing two or three inhibitors of different HIV reverse transcriptases” (priority 1994, dated 1999).
In brackets after ≈: the same amount, converted by molar mass. Like-named read-outs stand apart in the source and are kept apart here.

Columns and labels:
HIV-1(IIIB) (WT) = assay: microbe, parasite or virus in culture; type: cell-based; conditions: Human immunodeficiency virus 1, IIIB, CCRF-CEM; CEM cells, Table 1; read-out: 50% Effective Concentration
Outline: (§1)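 Infect CEM cells (250,000 cells per ml) with virus at 100 CCID50/ml; add infected suspension to wells holding diluted compound; incubate 4 days, 37° C.; examine for syncytia.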

HIV-1/Nev (106-Ala) = assay: Sensitivity of mutant HIV-1 strain in CEM cell cultures; type: cell-based; conditions: Human immunodeficiency virus 1, CCRF-CEM; CEM cells, Table 1; read-out: 50% Effective Concentration
Outline: as §1

HIV-1/Pyr (181-Cys) = assay: as above; type: cell-based; conditions: Human immunodeficiency virus 1, CCRF-CEM; CEM cells, Table 1; read-out: 50% Effective Concentration
Outline: as §1

[1] = system: HIV-1/TIBO R82150 (100-Ile); assay: as above; type: cell-based; conditions: Human immunodeficiency virus 1, CCRF-CEM; CEM cells, Table 1; read-out: 50% Effective Concentration
Outline: as §1

[2] = system: HIV-1/TIBO R82913 (103-Asn); assay: as above; type: cell-based; conditions: Human immunodeficiency virus 1, CCRF-CEM; CEM cells, Table 1; read-out: 50% Effective Concentration
Outline: as §1

[3] = system: HIV-1/TSAO-m^3 T (138-Lys); assay: as above; type: cell-based; conditions: Human immunodeficiency virus 1, CCRF-CEM; CEM cells, Table 1; read-out: 50% Effective Concentration
Outline: as §1

HIV-1 RT (WT) = HIV-1 RT (WT) (Human immunodeficiency virus type 1 group M subtype B, UniProt P03366); assay: biochemical; conditions: substrate [2,8-3H]dGTP 2.95 μM, template poly(rC)oligo(dG); read-out: IC50, anti-HIV-1 RT (WT) activity (converted)
Procedure: The reaction mixture (50 μl) contained 50 mM Tris.HCl, pH 7.8, 5 mM dithiothreitol, […] glutathione, 500 μM EDTA, 150 mM KCl, 5 mM MgCl2, 1.25 μg of bovine serum albumin, a fixed concentration of the labeled substrate [2,8-^3 H]dGTP (2.95 μM, 2 μCi), a fixed concentration of the template/primer poly(C).oligo(dG) (0.1 mM), 0.06% Triton X-100, 5 μl of inhibitor solution [containing various concentrations (5-fold dilutions) of the test compounds], and 5 μl of the RT preparation. The reaction mixtures were incubated at 37° C. for 30 min, at which time 100 μl of calf thymus DNA (150 μg/ml), 2 ml of Na4 P2 07 (0.1 M in 1M HCl), and 2 ml of trichloroacetic acid (10%, v/v) were added. The solutions were kept on ice for 30 min, after which the acid-insoluble material was washed and analyzed for radioactivity.
Compounds I, III, IV and V were evaluated for their inhibitory effect on recombinant HIV-1 RT.

HIV-1(IIIB) = assay: Knock-out concentrations: breakthrough of HIV-1(IIIB)-induced cytopathicity in CEM cell cultures; type: cell-based; conditions: Human immunodeficiency virus 1, IIIB, CCRF-CEM, read-out: HIV-1-induced cytopathicity in cell culture; for activity at 0.1 µg/mL: 0.1 μg/ml; for activity at 0.5 µg/mL: 0.5 μg/ml; for activity at 2.5 µg/mL: 2.5 μg/ml
Procedure: The culture medium consisted of RPMI 1640 containing 10% fetal bovine serum, 2 mM L-glutamine, and 0.075% NaHCO3. The multiplicity of the initial infection was ~1000 times the CCID50 (50% cell culture infective dose). Passages were performed every 3 to 4 days by adding 0.5 to 1.0 ml of the infected culture supernatant to 5 ml of a suspension containing 4×10^5 uninfected CEM cells per ml. Syncytium formation was used as a parameter of virus breakthrough in the cell cultures. In the drug combination experiments, the compounds were combined at the same initial concentrations as used for the two lowest concentrations in the single-drug experiments.
The drug concentrations were kept constant throughout the whole time period of the experiment (10 subcultivations or 35 days). Then the drugs were removed from the cell cultures, and the cells were further subcultured for at least 5 additional passages.

[4] = 936 h, day 39 post infection, compound absent from day 35
[5] = 1008 h, day 42 post infection, compound absent from day 35
[6] = 1104 h, day 46 post infection, compound absent from day 35
[7] = 1176 h, day 49 post infection, compound absent from day 35
[8] = 1272 h, day 53 post infection, compound absent from day 35

CC(C)Nc1cccnc1N1CCN(C(=O)c2cc3ccccc3[nH]2)CC1 [BHAP U88204, reference compound]
EC50 (HIV-1(IIIB) (WT)): 0.04 µg/mL (≈ 0.11 µM)
EC50 (HIV-1/Nev (106-Ala)): 0.4 µg/mL (≈ 1.1 µM)
EC50 (HIV-1/Pyr (181-Cys)): 0.4 µg/mL (≈ 1.1 µM)
EC50 [1]: 0.75 µg/mL (≈ 2.06 µM)
EC50 [2]: 1.7 µg/mL (≈ 4.68 µM)
EC50 [3]: 0.07 µg/mL (≈ 0.193 µM)
IC50 (HIV-1 RT (WT)): 1210 nM
activity at 0.1 µg/mL (HIV-1(IIIB); 96 h, day 4 post infection): 0%
activity at 0.5 µg/mL (HIV-1(IIIB); 96 h, day 4 post infection): 0%
activity at 2.5 µg/mL (HIV-1(IIIB); 96 h, day 4 post infection): 0%
activity at 0.1 µg/mL (HIV-1(IIIB); 192 h, day 8 post infection): 12.5%
activity at 0.5 µg/mL (HIV-1(IIIB); 192 h, day 8 post infection): 0%
activity at 2.5 µg/mL (HIV-1(IIIB); 192 h, day 8 post infection): 0%
activity at 0.1 µg/mL (HIV-1(IIIB); 264 h, day 11 post infection): 50%
activity at 0.5 µg/mL (HIV-1(IIIB); 264 h, day 11 post infection): 6.25%
activity at 2.5 µg/mL (HIV-1(IIIB); 264 h, day 11 post infection): 0%
activity at 0.1 µg/mL (HIV-1(IIIB); 336 h, day 14 post infection): 100%
activity at 0.5 µg/mL (HIV-1(IIIB); 336 h, day 14 post infection): 6.25%
activity at 2.5 µg/mL (HIV-1(IIIB); 336 h, day 14 post infection): 0%
activity at 0.1 µg/mL (HIV-1(IIIB); 408 h, day 17 post infection): 100%
activity at 0.5 µg/mL (HIV-1(IIIB); 408 h, day 17 post infection): 25%
activity at 2.5 µg/mL (HIV-1(IIIB); 408 h, day 17 post infection): 0%
activity at 0.1 µg/mL (HIV-1(IIIB); 504 h, day 21 post infection): 100%
activity at 0.5 µg/mL (HIV-1(IIIB); 504 h, day 21 post infection): 75%
activity at 2.5 µg/mL (HIV-1(IIIB); 504 h, day 21 post infection): 0%
activity at 0.1 µg/mL (HIV-1(IIIB); 600 h, day 25 post infection): 100%
activity at 0.5 µg/mL (HIV-1(IIIB); 600 h, day 25 post infection): 87.5%
activity at 2.5 µg/mL (HIV-1(IIIB); 600 h, day 25 post infection): 0%
activity at 0.1 µg/mL (HIV-1(IIIB); 672 h, day 28 post infection): 100%
activity at 0.5 µg/mL (HIV-1(IIIB); 672 h, day 28 post infection): 100%
activity at 2.5 µg/mL (HIV-1(IIIB); 672 h, day 28 post infection): 0%
activity at 0.1 µg/mL (HIV-1(IIIB); 768 h, day 32 post infection): 100%
activity at 0.5 µg/mL (HIV-1(IIIB); 768 h, day 32 post infection): 100%
activity at 2.5 µg/mL (HIV-1(IIIB); 768 h, day 32 post infection): 0%
activity at 0.1 µg/mL (HIV-1(IIIB); 840 h, day 35 post infection): 100%
activity at 0.5 µg/mL (HIV-1(IIIB); 840 h, day 35 post infection): 100%
activity at 2.5 µg/mL (HIV-1(IIIB); 840 h, day 35 post infection): 0%
activity at 0.1 µg/mL (HIV-1(IIIB); [4]): 100%
activity at 0.5 µg/mL (HIV-1(IIIB); [4]): 100%
activity at 2.5 µg/mL (HIV-1(IIIB); [4]): 0%
activity at 0.1 µg/mL (HIV-1(IIIB); [5]): 100%
activity at 0.5 µg/mL (HIV-1(IIIB); [5]): 100%
activity at 2.5 µg/mL (HIV-1(IIIB); [5]): 0%
activity at 0.1 µg/mL (HIV-1(IIIB); [6]): 100%
activity at 0.5 µg/mL (HIV-1(IIIB); [6]): 100%
activity at 2.5 µg/mL (HIV-1(IIIB); [6]): 0%
activity at 0.1 µg/mL (HIV-1(IIIB); [7]): 100%
activity at 0.5 µg/mL (HIV-1(IIIB); [7]): 100%
activity at 2.5 µg/mL (HIV-1(IIIB); [7]): 0%
activity at 0.1 µg/mL (HIV-1(IIIB); [8]): 100%
activity at 0.5 µg/mL (HIV-1(IIIB); [8]): 100%
activity at 2.5 µg/mL (HIV-1(IIIB); [8]): 0%
